Measurements from US20250122147A1, “ARYL CYCLOHEXANEDIONE DERIVATIVE OR SALT THEREOF, PEST CONTROL AGENT CONTAINING SAME, AND METHOD FOR USE THEREOF” (ADEKA Corporation, priority 2021, published 2025).

What was measured:
Laodelphax striatellus = experiment: Insecticidal test against Laodelphax striatellus; conditions: 500 ppm drug solution; rice seedlings immersed 30 seconds; three-instar insects; eight days after inoculation
Plutella xylostella = experiment: Insecticidal test against Plutella xylostella; conditions: 500 ppm drug solution; Chinese cabbage seedlings with eggs immersed about 30 sec; six days after immersion; 25° C.
From the text: Six days after the immersion in the drug solution, the number of surviving insects was examined. […] In triplicate using 10 per plot.

[1] = system: Frankliniella occidentalis; experiment: Insecticidal test against Frankliniella occidentalis; conditions: 500 ppm drug solution sprayed on Phaseolus vulgaris leaf pieces with hatched larvae; four days after treatment
From the text: [formula] • assessment criteria.
Female adult Frankliniella occidentalis were inoculated onto Phaseolus vulgaris leaf pieces, and after allowing them to lay eggs for one day, the female adults were removed. […] Four days after the treatment, the number of surviving larvae of this species was examined. […] In duplicate.

Dirofilaria immitis = experiment: Influence evaluation test on the growth of Dirofilaria immitis; conditions: 168 h, read-out: development inhibition rate from the L3 stage larva to the L4-stage larva

O=C1CC(c2ccc(C(F)(F)F)cc2)CC(O)=C1C(=O)Nc1ccc(OC(F)(F)F)cc1 (centres unmarked) [1-9]
corrected mortality, rating of assessment (Laodelphax striatellus): D or higher | corrected mortality, rating of assessment (Plutella xylostella): D or higher | corrected mortality, rating of assessment [1]: D or higher

O=C1CC(c2ccc(C(F)(F)F)cc2)CC(O)=C1C(=O)Nc1ccc(F)cn1 (centres unmarked) [1-48, N-(5-fluoropyridin-2-yl)-5-hydroxy-3-oxo-4′-(trifluoromethyl)-1,2,3,6-tetrahydro-[1,1′-biphenyl]-4-carboxamide]
corrected mortality, rating of assessment (Plutella xylostella): D or higher | inhibition at 10 µM (Dirofilaria immitis): ≥ 50%

C[S+]([O-])c1ccc(C2CC(=O)C(C(=O)Nc3ccc(F)cn3)=C(O)C2)cc1 (centres unmarked) [1-164]
corrected mortality, rating of assessment (Laodelphax striatellus): D or higher | corrected mortality, rating of assessment (Plutella xylostella): D or higher

O=C1CC(c2cncs2)CC(O)=C1C(=O)Nc1ccc(F)cc1 (centres unmarked) [1-152]
corrected mortality, rating of assessment (Laodelphax striatellus): D or higher | corrected mortality, rating of assessment (Plutella xylostella): D or higher

CC1(c2ccc(C(F)(F)F)cc2)CC(=O)C(C(=O)Nc2ccc(F)cc2)=C(O)C1 (centres unmarked) [1-139]
corrected mortality, rating of assessment [1]: D or higher

CONC1=C(C(=O)Nc2ccc(F)cc2)C(=O)CC(c2ccc(C(F)(F)F)cc2)C1 (centres unmarked) [1-227, N-(4-fluorophenyl)-5-(methoxyamino)-3-oxo-4′-(trifluoromethyl)-1,2,3,6-tetrahydro-[1,1′-biphenyl]-4-carboxamide]
inhibition at 10 µM (Dirofilaria immitis): ≥ 50%

O=C1CC(c2ccc(C(F)(F)F)nc2)CC(O)=C1C(=O)Nc1ccc(F)cn1 (centres unmarked) [1-149]
corrected mortality, rating of assessment (Laodelphax striatellus): D or higher | corrected mortality, rating of assessment (Plutella xylostella): D or higher

O=C1CC(c2ccc(C(F)(F)F)nc2)CC(O)=C1C(=O)Nc1ccc(F)cc1 (centres unmarked) [1-68]
corrected mortality, rating of assessment (Laodelphax striatellus): D or higher | corrected mortality, rating of assessment (Plutella xylostella): D or higher

O=C1CC(c2ccc(Br)cn2)CC(O)=C1C(=O)Nc1ccc(F)cc1 (centres unmarked) [1-161]
corrected mortality, rating of assessment (Laodelphax striatellus): D or higher | corrected mortality, rating of assessment (Plutella xylostella): D or higher

O=C1CC(c2ccc(C(F)(F)F)nc2)CC(O)=C1C(=O)Nc1ccc(F)nc1 (centres unmarked) [1-150]
corrected mortality, rating of assessment (Laodelphax striatellus): D or higher | corrected mortality, rating of assessment [1]: D or higher

O=C1CC(c2ccc(C(F)(F)F)cc2)CC(O)=C1C(=O)Nc1nccs1 (centres unmarked) [1-47, 5-hydroxy-3-oxo-N-(thiazol-2-yl)-4′-(trifluoromethyl)-1,2,3,6-tetrahydro-[1,1′-biphenyl]-4-carboxamide]
inhibition at 10 µM (Dirofilaria immitis): ≥ 50%
